The values that follow come from patent US20240018145A1, “[…]-DEPENDENT EN[…] TREATING OR […]” (priority 2020, published 2024).

In the assay the test system is FLU A (PR/8/34). Kind of assay: Flu A Neuraminidase Antiviral Assay. The format is cell-based.

pEC50: −log10 of the molar value. Where two headings read alike, the source gives them in different places.

As a reminder, the pEC50 is the EC50 on a negative log10 scale, so that one unit is a factor of ten. Read a low pEC50 as a large EC50. `O=C1c2c(O)c(=O)ccn2N2C(c3ccccc3)C(CC3(C(F)(F)F)CC3)CCC2N1CC1CC1` (single isomer, unassigned) [Compound 90B, 5-(cyclopropylmethyl)-7-hydroxy-1-phenyl-2-((1-(trifluoromethyl)cyclopropyl)methyl)-1,2,3,4,4a,5-hexahydrodipyrido[1,2-b:2′,1′-f][1,2,4]triazine-6,8-dione] showed a pEC50 of 7.53.
The same measure, in the same setting: the figure for `CN1C(=O)c2c(O)c(=O)ccn2N2C1CCCC21CCc2ccccc21` (single isomer, unassigned) [Compound 21D, 7-hydroxy-5-methyl-2′,3,3′,4,4a,5-hexahydro-2H-spiro[dipyrido[1,2-b:2′,1′-f][1,2,4]triazine-1,1′-indene]-6,8-dione] is 5.81.
Take `Cc1ccccc1C1C(CCC(F)(F)F)CCC2N(C)C(=O)c3c(O)c(=O)ccn3N12` (single isomer, unassigned) [Compound 95B, 7-hydroxy-5-methyl-1-(o-tolyl)-2-(3,3,3-trifluoropropyl)-1,2,3,4,4a,5-hexahydrodipyrido[1,2-b:2′,1′-f][1,2,4]triazine-6,8-dione]: the pEC50 is 8.12.
Still for that read-out and setting: the result for `COc1ccccc1C1C(CC(F)(F)F)CCC2N(C)C(=O)c3c(O)c(=O)ccn3N12` (single isomer, unassigned) [Compound 125A, 7-hydroxy-1-(2-methoxyphenyl)-5-methyl-2-(2,2,2-trifluoroethyl)-1,2,3,4,4a,5-hexahydrodipyrido[1,2-b:2′,1′-f][1,2,4]triazine-6,8-dione] reads 5.99; that for `CN1C(=O)c2c(O)c(=O)ccn2N2C(c3cccc(Br)c3)C(CC(F)(F)F)CCC12` (single isomer, unassigned) [Compound 83B, 1-(3-bromophenyl)-7-hydroxy-5-methyl-2-(2,2,2-trifluoroethyl)-1,2,3,4,4a,5-hexahydrodipyrido[1,2-b:2′,1′-f][1,2,4]triazine-6,8-dione], 8.66.
As for `CN1C(=O)c2c(O)c(=O)ccn2N2C1/C(=C/c1ccccc1)C[C@@H](O)[C@@]2(C)c1ccccc1` (stereo partly drawn) [Compound 149, (1R,2R)-4-((E)-benzylidene)-2,7-dihydroxy-1,5-dimethyl-1-phenyl-1,2,3,4,4a,5-hexahydrodipyrido[1,2-b:2′,1′-f][1,2,4]triazine-6,8-dione], the pEC50 (MDCK, 48 h) was less than 6.09.
Regarding `CN1C(=O)c2c(O)c(=O)ccn2N2C(c3ccccc3)C(C3CC3(F)F)CCC12` (single isomer, unassigned) [Compound 105A, 2-(2,2-difluorocyclopropyl)-7-hydroxy-5-methyl-1-phenyl-1,2,3,4,4a,5-hexahydrodipyrido[1,2-b:2′,1′-f][1,2,4]triazine-6,8-dione], for the setting “MDCK, 48 h”, the pEC50 was 6.38.
`CS[C@H]1CC[C@@H](c2ccccc2)N2[C@@H]1N(C)C(=O)c1c(O)c(=O)ccn12` [Compound 147, (1S,4S,4aS)-7-hydroxy-5-methyl-4-(methylthio)-1-phenyl-1,2,3,4,4a,5-hexahydrodipyrido[1,2-b:2′,1′-f][1,2,4]triazine-6,8-dione] gave a pEC50 (MDCK, 48 h) of 7.77. This pEC50 lies 1.39 log units higher than the previous one.
Compound `CN1C(=O)c2c(O)c(=O)ccn2N2C(c3ccccc3)C(CC3CC3(F)F)CCC12` (single isomer, unassigned) [Compound 114C, 2-((2,2-difluorocyclopropyl)methyl)-7-hydroxy-5-methyl-1-phenyl-1,2,3,4,4a,5-hexahydrodipyrido[1,2-b:2′,1′-f][1,2,4]triazine-6,8-dione] showed a pEC50 of 8.28.
Same read-out and setting: the result for `CC1(c2cc(C(F)(F)F)ccn2)CCCC2N(CC3(C(F)(F)F)CC3)C(=O)c3c(O)c(=O)ccn3N21` (single isomer, unassigned) [Compound 52A, 7-hydroxy-1-methyl-5-((1-(trifluoromethyl)cyclopropyl)methyl)-1-(4-(trifluoromethyl)pyridin-2-yl)-1,2,3,4,4a,5-hexahydrodipyrido[1,2-b:2′,1′-f][1,2,4]triazine-6,8-dione] reads 6.94.
